Each block holds one molecule with its values, some of them ahead of it.
Tests used:
Fab S95C = experiment: Covalent attachment of 111In-chelates to engineered Fab S95C (SDS-PAGE); assay type: binding; settings: physiological pH and temperature, raw culture medium with 10% fetal calf serum
Description: FIG. 5 Conjugation of electrophilic ^111In-benzyl-EDTA derivatives with engineered Fab S95C. Phosphorimage of 10-20% SDS-PAGE gel of samples of complete culture media incubated with ^111In-labeled (A) CABE, (B) CpABE, (C) AABE, and (D) ABE. The radiolabeled light chains migrate near 25 Kd.
To investigate whether either the S95C or the N96C Fab would bind irreversibly to its target, ^111In-labeled chelates bearing electrophilic groups were incubated at physiological pH and temperature with raw tissue culture medium from the cells expressing these recombinant proteins. The culture medium contained 10% fetal calf serum, representative of typical biological media.
The samples were analyzed by denaturing gel electrophoresis (SDS-PAGE). Separation under reducing and denaturing conditions on SDS-PAGE separates the light chain from the heavy chain of each Fab, functionally destroying the antibody-binding pocket. Chelates bound to the Fab but not covalently linked will dissociate because the antibody-binding pocket is no longer folded. […] However, a chelate that not only bound to a Fab but also covalently linked will be attached to the Fab light chain and migrate with it on SDS-PAGE.

[1] = Whole-body clearance of indium-111 labeled electrophilic benzyl-EDTA derivatives; assay type: in vivo; settings: indium-111 labeled chelate, BALB/c mice; for apparent half-life, whole-body clearance: after tail-vein injection
Description: FIG. 4 Whole-body clearance of indium-^111I labeled electrophilic derivatives of benzyl-EDTA from BALB/c mice after tail-vein injection. Here the objective was to find an electrophilic chelate that clears from the animal quickly when not captured by an engineered CHA255.
As reactive ligands, a small set of chelates bearing electrophilic para substituents (FIG. 3) that could react with cysteine were prepared. To be most useful, the electrophilic ligands should be stable in biological media so that they not react prematurely with common biological nucleophiles such as the cysteine on glutathione or in albumin (Geigy Scientific Tables Vol 3, C. Lentner, ed., Ciba-Geigy Ltd., Basel, Switz (1984)). The whole-body clearance of the radiolabeled chelates from mice was studied (FIG. 4 and Chmura, A. J., et al., J. Controlled Release 78:249-258 (2002)) to identify the electrophilic chelates that are unreactive in plasma in vitro, and which also quantitatively clear from live animals.

antibody 2D12.5 = experiment: Competitive immunoassay (ELISA) of metal chelate binding; set-up: species or system mouse
Excerpt: FIG. 9 Relative binding of metal-(S)NBD complexes to antibody 2D12.5. A representative set of competitive binding curves obtained from ELISA experiments. Distance between midpoints is related to difference between dissociation constants. Error bars (representing the standard error of the mean) are shown but are generally smaller than the data points.
FIG. 14 Binding of yttrium chelates with different stereochemistry to antibody 2D12.5, showing that the antibody binds a chelate with the side chain in the R configuration approximately one order of magnitude less well than the S configuration. […] Error bars are smaller than the data symbols. Data were generated by competitive ELISA.
A competitive immunoassay to measure the binding constants of various metal-(S)NBD complexes relative to the original Y^3+ complex (FIG. 9) was developed to assess the metal selectivity of antibody 2D12.5. Briefly, 2D12.5 was incubated at 37° C. in the presence of immobilized HSA-21T-Y-(S)BAD and a soluble metal-(S)NBD competitor (Y-(S)BAD was linked to human serum albumin via 2-iminothiolane). The metal-(S)NBD concentration was varied from μM to pM in order to determine the relative binding affinity of 2D12.5 for each metal chelate in comparison to Y-(S)NBD. […] Other antibodies that bind metal chelates do so with a strong preference for one or possibly two metals (Love, R. et al., Biochemistry 32, 10950-10959 (1993), and Khosraviani, M., et al., (2000) Bioconjugate Chem., 11, 267-277). For example, the (S)NBD chelate of group IIIB ion Sc(III) binds to the antibody with a much lower affinity (<1%) than the strongest binding rare earth complexes, perhaps because Sc(III) has a much smaller ionic radius (Meehan, P. R., et al., Coord. Chem. Rev., 181, 121145, and Shannon, R. D. (1976) Acta Crystallogr., Sect. A: Found. Crystallogr., A32, 751-767).

G54C mutant of 2D12.5 = experiment: Permanent binding to G54C, competitive 90Y-AABD attachment, SDS-PAGE; settings: 37° C.
Description: FIG. 17 a) Scheme describing the permanent binding pair. b) Infinite binding is observed not only for ^90Y-AABD but also for ^111In-AABD, assayed by SDS-PAGE under denaturing conditions where only permanently bound complexes remain attached to the antibody.
FIG. 18 The G54C mutant was preincubated in triplicate with 10 μM AABD complexes of Y^3+, In^3+ or Cu^2+, a negative control N-(1-carbamoyl-2-(4-nitrophenyl)-ethyl)-acrylamide or N-(4-carboxymethylphenyl)-acrylamide, or just buffer, for 5 min, 20 min or 120 min at 37° C., pH 7.5. At the stated times ^90Y-AABD (1 μM) was added to each solution to compete for free G54C. Permanent binding was assayed by measuring band intensities after SDS-PAGE. a) Phosphorimage of gel. The fainter the bands, the greater the permanent binding by the unlabeled ligand. b) Crystal structures of Y-DOTA, In-DOTA-mono(p aminoanilide) (some atoms removed for clarity) and Cu-DOTA.
FIG. 19 a) Metal-AABD (10 μM) complexes were preincubated separately with aliquots of G54C for 5 min, followed by addition of 1 μM ^90Y-AABD, which competes for free G54C, and SDS-PAGE analysis. b) From quantitative phosphorimaging, the highest-affinity AABD complexes form permanent bonds with G54C with higher yields than more 3+weakly binding rare earth-AABD complexes whose ionic radii are slightly smaller (Lu Yb^3+) or larger (Ce^3+, La^3+) than ideal.
We were curious to see if an even weaker binder such as a copper chelate (KD˜10^−4 M for Cu-NBD) would bind irreversibly under ordinary conditions. We tested this by comparing the permanent binding of Y^3+-, In^3+-, and Cu^2+-AABD, using competitive ^90Y-AABD attachment as an indicator (FIG. 18). […] Weaker binding In-AABD blocks >50% of the sites after 5 min preincubation, and even more at later times. Very weakly binding Cu-AABD initially occupies only about 10% of the G54C sites under these conditions, but it has permanently attached to G54C in good yield after 2 hr, blocking>70% of the sites.

avidin = avidin (Gallus gallus, UniProt P02701); settings: cited from earlier work
Chain of avidin (P02701 25-152): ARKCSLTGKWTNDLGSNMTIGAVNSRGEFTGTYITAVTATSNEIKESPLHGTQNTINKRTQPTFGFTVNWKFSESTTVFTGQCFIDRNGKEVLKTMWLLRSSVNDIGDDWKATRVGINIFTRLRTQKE

HLA-DR10 = experiment: Gel shift assay of permanent attachment of sL1 mutants (western blot); assay type: binding; settings: for cross-linking of linker-activated T97C to HLA-DR10: sL1 mutant T97C activated with electrophile, 19 h incubation, western blot
Excerpt: FIG. 25 Gel shift assay of permanent attachment of sL1 to HLA-DR: western blot stained with anti-HLA-DR10β (antibody HL-40). The glycosylated β subunit of HLA-DR10 runs approximately 28-34 kDa, so the cross-linked sL1-HLA-DR10β should run at 57-63 kDa (bands in lanes 5 and 10). Lanes 2-6 are cysteine mutant F96C and lanes 7-11 are cysteine mutant T97C. Lanes 2 and 7 are sL1 mutant only; lanes 3 and 8 are sL1 mutant and HLA-DR10 target; lanes 4 and 9 are sL1 mutant and electrophile (no target); lanes 5 and 10 are the complete experiment: sL1 mutant, electrophile, and target; and lanes 6 and 11 are sL1 mutant with electrophile and recombinant human serum albumin as a negative control. Lnkr: nitrophenyl ester; Trgt: HLA-DR10.
Irreversible Binding Studies of sL1 and HLA-DR10 The general strategy for the development of an irreversibly binding Lym1 sFv (sL1) is outlined in FIG. 24. Lym-1 scFv (sL1) is genetically altered to incorporate a cysteine residue in various positions of one of the six CDRs. This free sulfhydryl is then activated with an alkylbromoacetate consisting of varied R-groups (see FIG. 34) which modify the reactivity of the covalent bond formation. The activated sL1 is then incubated with a crude mixture containing the target protein. The mixture is loaded on a SDS-PAGE gel and then investigated for the appearance of new, high molecular weight bands corresponding to the conjugation of the target protein and the sL1.
The general experimental protocol for the gel shift assays in the figures is as follows. An aliquot of concentrated P. pastoris expression media containing an sL1 mutant (8-10 μL, positive by anti-V5 stain for sL1 and dialyzed into 10 mM HEPES buffer pH 8.0), is incubated for 15 min with a chosen bromoacetate ester (e.g., nitrophenyl bromoacetate) at a concentration of 10 mM, to alkylate the Cys sidechain. […] Reducing SAB is added to each sample, followed by SDS-PAGE and western blotting.

HLADR = experiment: Monovalent binding of Lym-1 single-chain antibody
Excerpt: This is a combination of (1) the behavior characteristic of a weak binder, which should permeate a tumor, and (2) the behavior of an extremely strong binder, which should ultimately lock onto its targets throughout the tumor. This combination of good penetration and permanent binding is a unique and revolutionary aspect of this technology.

Molecule: O=C(O)CN(CC(=O)O)CC(Cc1ccc(NC(=O)CCl)cc1)N(CC(=O)O)CC(=O)O (centres unmarked) [CABE, chloroacetamidobenzyl-EDTA]
covalent attachment to Fab S95C light chain (Fab S95C): reacted equally well | whole-body clearance [1]: remain in the animals | apparent half-life, whole-body clearance [1]: 9 h

Molecule: O=C(O)CN1CCN(CC(=O)O)CCN(CC(=O)O)CCN(CC(=O)O)CC1 [Y-DOTA, 1,4,7,10-tetraazacyclododecane-N,N′,N″,N′″-tetraacetic acid]
relative binding to 2D12.5 (antibody 2D12.5; competitive ELISA): lower than Y-(S)NBD but higher than Y-(R)NBD | relative binding to 2D12.5 (antibody 2D12.5; competitive ELISA, listed as Yttrium-DOTA): approximately in the middle

Molecule: C=CC(=O)Nc1ccc(C[C@H]2CN(CC(=O)O)CCN(CC(=O)O)CCN(CC(=O)O)CCN2CC(=O)O)cc1 [In-AABD, (S)-2-(4-acrylamidobenzyl)-DOTA]
G54C sites blocked from 90Y-AABD (G54C mutant of 2D12.5; 10 μM complex, preincubation 5 min, pH 7.5): > 50% | permanent binding to G54C (G54C mutant of 2D12.5; pH 7.5, SDS-PAGE, listed as 111In-AABD): binds permanently

Molecule: O=C(O)CN1CCN(CC(=O)O)CCN(CC(=O)O)[C@@H](Cc2ccc([N+](=O)[O-])cc2)CN(CC(=O)O)CC1 [Gd-(S)NBD, (S)-2-(4-nitrobenzyl)-DOTA]
relative binding to 2D12.5 (antibody 2D12.5; competitive ELISA): bind more tightly than the original Y^3+ complex

Molecule: O=C(O)CCCC[C@@H]1SC[C@@H]2NC(=O)N[C@@H]21 [biotin]
KA (avidin): ~4e+09 M⁻¹

Molecule: O=C(O)CN1CCN(CC(=O)O)CCN(CC(=O)O)[C@@H](Cc2ccc([N+](=O)[O-])cc2)CN(CC(=O)O)CC1 [Y-(S)NBD, (S)-2-(4-nitrobenzyl)-DOTA]
Kd (antibody 2D12.5; 37° C., competitive immunoassay): 10 nM

Molecule: nitrophenylbromoacetate
cross-linking of linker-activated T97C to HLA-DR10 (HLA-DR10): strong cross-linking

Molecule: C=CC(=O)Nc1ccc(C[C@H]2CN(CC(=O)O)CCN(CC(=O)O)CCN(CC(=O)O)CCN2CC(=O)O)cc1 [Cu-AABD, (S)-2-(4-acrylamidobenzyl)-DOTA]
G54C sites initially occupied (G54C mutant of 2D12.5; 10 μM complex, pH 7.5): about 10% | G54C sites blocked from 90Y-AABD (G54C mutant of 2D12.5; 10 μM complex, after 2 hr, pH 7.5): > 70%

whole-body clearance [1]: remain in the animals | apparent half-life, whole-body clearance [1]: 41 h
Molecule: O=C(O)CN(CC(=O)O)CC(Cc1ccc(NC(=O)CBr)cc1)N(CC(=O)O)CC(=O)O (centres unmarked) [BABE, bromoacetamidobenzyl-EDTA]

Molecule: O=C(O)CN1CCN(CC(=O)O)CCN(CC(=O)O)[C@@H](Cc2ccc([N+](=O)[O-])cc2)CN(CC(=O)O)CC1 [La-(S)NBD, (S)-2-(4-nitrobenzyl)-DOTA]
ΔΔG relative to the Y-(S)NBD complex (antibody 2D12.5; competitive ELISA): 0.693 kcal/mol

Molecule: (S)-1-p chloropropionamidobenzyl-EDTA [CpABE]
covalent attachment to Fab S95C light chain (Fab S95C): not

Molecule: O=C(CBr)Oc1ccccc1 [phenylbromoacete]
cross-linking of linker-activated T97C to HLA-DR10 (HLA-DR10): mild reactivity

B1: sL1: Lym-1 single-chain antibody, no cysteine mutation (protein)
scFv: RSQVQLKESGPGLVAPSQSLSITCTISGFSLTSYGVHWVRQPPGKGLEWLVVIWSDGSTTYNSALKSRLSISKDNSKSQVFLKMNSLQTDDTAIYYCASHYGSTLAFASWGHGTLVTVSAGGGGSGGGGSGGGGSDIQMTQSPASLSASVGETVTIICRASVNIYSYLAWYQQKQGKSPQLLVYNAKILAEGVPSRFSGSGSGTQFSLKINSLQPEDFGSYYCQHHYGTFTFGSGTKLEIKSRGPFEGKPIPNPLLGLDSTRTGHHHHHH
permanent attachment (cross-linking) to HLA-DR10β (HLA-DR10; sL1 construct treated with nitrophenyl ester, 37° C., 4 hr, western blot with HL-40): no reactive band appeared | monovalent affinity (HLADR): too weak to measure confidently, but probably in the micromolar range
